Measured values published in patent US20100227853A1, “INHIBITORS OF CYCLIC AMP PHOSPHODIESTERASES” (Trustees of Boston College, priority 2008, published 2010).

Key:
PDE4B3 = biological target: T1, PDE4B3 (Mus musculus, UniProt Q8VBU5); experiment: 5FOA growth assay in fission yeast strain expressing PDE4B3; type: cell-based, Murine; settings: for Composite Z score, PDE4B3: high throughput 5FOA growth screen
T1 construct: targets used in the assays are full-length proteins (as opposed to simply the catalytic domain); expressed in transfected cells; host or cells: Schizosaccharomyces pombe, PDE gene integrated in place of cgs2
T1 sequence (Q8VBU5 1-721): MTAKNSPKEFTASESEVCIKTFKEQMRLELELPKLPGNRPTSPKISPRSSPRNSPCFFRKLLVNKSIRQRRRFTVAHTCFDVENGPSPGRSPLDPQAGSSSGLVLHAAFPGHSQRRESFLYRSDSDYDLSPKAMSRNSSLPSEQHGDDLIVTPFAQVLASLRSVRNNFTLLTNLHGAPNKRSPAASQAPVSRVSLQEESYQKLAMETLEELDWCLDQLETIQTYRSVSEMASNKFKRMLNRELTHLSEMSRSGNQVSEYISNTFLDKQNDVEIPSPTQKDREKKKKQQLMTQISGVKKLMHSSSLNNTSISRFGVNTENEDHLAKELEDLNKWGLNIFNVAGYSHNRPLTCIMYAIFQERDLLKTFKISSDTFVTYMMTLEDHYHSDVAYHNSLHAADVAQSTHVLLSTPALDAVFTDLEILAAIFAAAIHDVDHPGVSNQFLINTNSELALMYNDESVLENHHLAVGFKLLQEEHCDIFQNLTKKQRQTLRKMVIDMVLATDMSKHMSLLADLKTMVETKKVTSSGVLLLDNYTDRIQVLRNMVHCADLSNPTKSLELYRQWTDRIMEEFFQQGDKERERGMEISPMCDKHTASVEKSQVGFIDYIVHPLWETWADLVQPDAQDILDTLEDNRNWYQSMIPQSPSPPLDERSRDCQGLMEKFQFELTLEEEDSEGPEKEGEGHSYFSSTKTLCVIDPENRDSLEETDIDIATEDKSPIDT
Procedure, shortened: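 Fission yeast strains carrying mouse PDE4A1 or PDE4B3 and an fbp1-ura4 reporter were pregrown in EMM with 0.5–2.5 mM cAMP, then seeded at 0.5–4×10^5 cells/ml in 5FOA medium with compound. Growth was read as OD600 after 48 h at 30° C; composite Z scores were derived.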

PDE7A = PDE7A (Homo sapiens, UniProt Q13946); experiment: 5FOA growth assay in fission yeast strain expressing PDE7A; type: cell-based; parameters: targets used in the assays are full-length proteins (as opposed to simply the catalytic domain); expressed in transfected cells; host or cells: Schizosaccharomyces pombe, PDE gene integrated in place of cgs2; settings: for Composite Z score, PDE7A: high throughput 5FOA growth screen; for EC50: OD600 0.6, read-out: ED50 for 5FOA growth assays, PDE7A
Procedure, shortened: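 Fission yeast carrying an fbp1-ura4 reporter were pregrown to exponential phase at 30 °C in EMM with 0–2.5 mM cAMP (or 0.5/1.0 mM cGMP), then moved into 5FOA medium with 100 nl pinned compound (10 mM stocks). Growth was read as OD600 after 48 h at 30 °C and scored as composite Z scores.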

PDE7A, sequence (Q13946 whole entry, the tested form may be a part): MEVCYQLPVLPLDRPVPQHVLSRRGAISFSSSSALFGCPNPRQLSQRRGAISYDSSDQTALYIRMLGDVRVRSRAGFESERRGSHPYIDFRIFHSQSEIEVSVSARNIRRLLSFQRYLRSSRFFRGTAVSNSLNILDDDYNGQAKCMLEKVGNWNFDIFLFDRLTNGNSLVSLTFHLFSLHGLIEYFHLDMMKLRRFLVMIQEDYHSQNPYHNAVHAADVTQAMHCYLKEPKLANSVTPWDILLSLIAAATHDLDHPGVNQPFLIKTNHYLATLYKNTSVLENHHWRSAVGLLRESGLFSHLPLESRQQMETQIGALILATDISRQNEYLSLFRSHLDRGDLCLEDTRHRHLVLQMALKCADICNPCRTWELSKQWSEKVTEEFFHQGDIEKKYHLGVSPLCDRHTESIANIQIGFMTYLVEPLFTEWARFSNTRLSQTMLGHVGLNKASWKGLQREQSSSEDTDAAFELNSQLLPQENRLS

Row | SMILES | Composite Z score, PDE4B3 (PDE4B3) | Composite Z score, PDE7A (PDE7A) | also measured
1 | Cc1nc(NCCc2ccccc2)c2c3c(sc2n1)CCCC3 [Compound 2008G09] | 0.0156 | 0.03 | –
2 | CCc1ccc2c(c1)c1nc3ccccc3nc1n2CC [2015, P06] | – | – | 1 Assay (20 uM) 4B3 (PDE4B3; PDE 4B3): 0.13 ND ND ND ND; 1 Assay (20 uM) 7A (PDE7A; PDE 7A): 1.07 ND ND ND ND
3 | Cc1c(C(=O)NCCC(C)C)sc2ncnc(N3CCOCC3)c12 [Compound 2040F13] | 0.9277 | −0.598 | –
4 | CCOC(CNc1nc(C)nc2sc3c(c12)CCCC3)OCC [Compound 2040D04] | 4.66 | −0.593 | –
5 | COC(=O)C1/C(=C/c2cccc(OC)c2O)C(=O)N(c2ccccc2F)C1C (centres unmarked) [2008, C21] | – | – | 1 Assay (20 uM) 4B3 (PDE4B3): 24.16 ND ND ND ND; 1 Assay (20 uM) 7A (PDE7A): −0.08 ND ND ND ND
6 | c1ccc(CCn2c3ccccc3c3nc4ccccc4nc32)cc1 [2019, G03] | – | – | 1 Assay (20 uM) 4B3 (PDE4B3; PDE 4B3): 83.22 ND ND ND ND; 1 Assay (20 uM) 7A (PDE7A; PDE 7A): 4.47 ND ND ND ND
7 | Cc1c(C(=O)N2CCCCCC2)sc2ncnc(N3CCN(c4ccccc4)CC3)c12 [Compound 2041I21] | 7.48 | −0.933 | –
8 | CCCCn1c2ccccc2c2nc3ccccc3nc21 [2013, I20] | – | – | 1 Assay (20 uM) 4B3 (PDE4B3; PDE 4B3): 0.29 ND ND ND ND; 1 Assay (20 uM) 7A (PDE7A; PDE 7A): −0.84 ND ND ND ND
9 | COc1cc(OC)c(NC(=O)c2sc3ncnc(N4CCCCC4C)c3c2C)cc1Cl (centres unmarked) [Compound 2040J10] | 1.7278 | 0.6002 | –
10 | CCNc1nc(SCC(=O)NC(=O)NCc2ccccc2)nc2sc3c(c12)CCN(C)C3 [Compound 2054N05] | 0.0285 | 0.1836 | –
11 | CC(C)Cn1c2ccc(Br)cc2c2nc3ccccc3nc21 [2015, L04] | – | – | 1 Assay (20 uM) 4B3 (PDE4B3; PDE 4B3): 1.17 ND ND ND ND; 1 Assay (20 uM) 7A (PDE7A; PDE 7A): −0.79 ND ND ND ND
12 | CCC(C)NC(=O)c1sc2nc(C)nc(N(C)c3ccc(C(C)C)cc3)c2c1C (centres unmarked) [Compound 2041K04] | −0.456 | −1.377 | –
13 | CCNc1nc(SCC(=O)OCC)nc2sc3c(c12)CCC(C)C3 (centres unmarked) [Compound 2053H16] | 9.0572 | 0.7038 | –
14 | Cc1sc2ncnc(Nc3ccccc3)c2c1C [BC64] | 0.3426 | 55.035 | EC50 (PDE7A): > 200 µM
15 | CCN(CC)c1ncnc2sc3c(c12)CCCC3 [BC44] | 85.067 | 177.31 | –
16 | CCOC(=O)c1sc2nc(C)nc(N3CCC(C)CC3)c2c1C [Compound 2007D06] | 0.2826 | −0.759 | –
17 | COC(=O)C1=C(C)N(c2ccccc2Cl)C(=O)/C1=C\c1cccs1 [Compound 27] | – | – | 2 Assay (2 uM), 4B3 (PDE4B3): 22.05; 1 Assay (20 uM) 4B3 (PDE4B3): −0.26; 2 Assay (2 uM), 7A (PDE7A): 5.07; 1 Assay (20 uM) 7A (PDE7A): 2.34
18 | Cc1c(C(=O)N(C)Cc2ccccc2)sc2ncnc(N3CCN(c4ccccc4)CC3)c12 [Compound 2041G21] | 33.162 | −1.371 | –
19 | CCOC(=O)c1sc2nc(Cc3ccccc3)nc(NCCC3CCCCC3)c2c1C [Compound 2040F07] | 5.0875 | 1.5898 | –
20 | CC1CC(=O)N(c2ncnc3sc4c(c23)CCCC4)N1 (centres unmarked) [2054 E16] | 0.62 | −0.737 | –
21 | C=Cn1c2ccccc2c2nc3ccccc3nc21 [2033, H06] | – | – | 1 Assay (20 uM) 4B3 (PDE4B3; PDE 4B3): 103.11 ND ND ND ND; 1 Assay (20 uM) 7A (PDE7A; PDE 7A): 0.63 ND ND ND ND

Row | SMILES | Composite Z score, PDE4B3 (PDE4B3) | Composite Z score, PDE7A (PDE7A) | also measured
22 | Cc1ccc2c(c1)CCC1CC(=O)CC[C@]21C (some centres unmarked) [Compound 2158J12] | – | – | 2 Assay (2 uM), 4B3 (PDE4B3; PDE 4B3): 8.18; 1 Assay (20 uM) 4B3 (PDE4B3; PDE 4B3): 37.13; 2 Assay (2 uM), 7A (PDE7A; PDE 7A): 29.01; 1 Assay (20 uM) 7A (PDE7A; PDE 7A): 74.45
23 | COc1ccc(CCNc2ncnc3sc4c(c23)CCCC4)cc1 [Compound 2012B19] | 43.053 | 26.421 | –
24 | c1nc(NCCCN2CCOCC2)c2c3c(sc2n1)CCCC3 [Compound 2051N22] | −0.998 | −0.445 | –
25 | COc1ccccc1CNC(=O)c1sc2ncnc(N3CCN(c4ccccc4F)CC3)c2c1C [2041 E21] | −0.408 | 0.5923 | –
26 | CCOC(=O)c1ccccc1NC(=O)c1sc2nc(C)nc(N(CC)CC)c2c1C [Compound 2040P12] | 1.0041 | 1.3653 | –
27 | CCC1CCc2c(sc3ncnc(N4CCOCC4)c23)C1 (centres unmarked) [BC33] | 42.416 | −0.794 | EC50 (PDE7A): > 200 µM
28 | COC(=O)C1=C(C)N(c2ccc(C(C)C)cc2)C(=O)/C1=C\c1ccco1 [2008, 019] | – | – | 1 Assay (20 uM) 4B3 (PDE4B3): −2.99 ND ND ND ND; 1 Assay (20 uM) 7A (PDE7A): 2.78 ND ND ND ND
29 | Cc1c(C(=O)Nc2ccc(F)cc2F)sc2ncnc(N(C)c3ccccc3)c12 [Compound 58-9] | 78.662 | 123.57 | –
30 | Cc1nc(N2CCCCC2)c2c(C)c(C(=O)Nc3cccc(C(F)(F)F)c3)sc2n1 [Compound 2040F10] | 16.5 | −1.481 | –
31 | Cc1ccc2c(c1)c1nc3ccccc3nc1n2C(C)C [Compound 41] | – | – | 1 Assay (20 uM) 4B3 (PDE4B3; PDE 4B3): 200.51; 1 Assay (20 uM) 7A (PDE7A; PDE 7A): 0.31
32 | C=CCn1c2ccc(Br)cc2c2nc3ccccc3nc21 [2017, C18] | – | – | 1 Assay (20 uM) 4B3 (PDE4B3; PDE 4B3): 56.91 ND ND ND ND; 1 Assay (20 uM) 7A (PDE7A; PDE 7A): −1.58 ND ND ND ND
33 | COC(=O)C1=C(C)N(C2CCCCC2)C(=O)/C1=C\c1cccs1 [Compound 22] | – | – | 2 Assay (2 uM), 4B3 (PDE4B3): 37.54; 1 Assay (20 uM) 4B3 (PDE4B3): 70.26; 2 Assay (2 uM), 7A (PDE7A): 57.22; 1 Assay (20 uM) 7A (PDE7A): 132.82
34 | N#Cc1sc2sc(C#N)c(-c3ccco3)c2c1N [Compound 30] | – | – | 2 Assay (2 uM), 4B3 (PDE4B3): 5.21; 1 Assay (20 uM) 4B3 (PDE4B3): 4.67
35 | O=C(O)CCNc1ncnc2sc3c(c12)CCCC3 [Compound 2012O16] | −0.716 | 1.8846 | –
36 | CC(C)CC(Nc1ncnc2sc3c(c12)CCC3)C(=O)O (centres unmarked) [Compound 2012H20] | 0.1698 | −0.757 | –
37 | COc1ccc2c(c1)[C@@]1(C)CCC[C@](C)(CO)C1CC2 (some centres unmarked) [Compound 2067M03] | – | – | 2 Assay (2 uM), 4B3 (PDE4B3; PDE 4B3): 19.00; 1 Assay (20 uM) 4B3 (PDE4B3; PDE 4B3): 13.34; 2 Assay (2 uM), 7A (PDE7A; PDE 7A): 8.65; 1 Assay (20 uM) 7A (PDE7A; PDE 7A): 104.31
38 | CCN(CC)c1nc(C)nc2sc(C(=O)N3CCCCCC3)c(C)c12 [Compound 2040N12] | 12.239 | −1.037 | –
39 | Cc1c(C(=O)Nc2ccc(F)cc2F)sc2ncnc(N3CCC(C)CC3)c12 [BC58] | 78.927 | 24.881 | –
40 | CNc1nc(=S)[nH]c2sc3c(c12)CCCC3 [2054 E08] | 0.2798 | −0.995 | –
41 | O=C(/C=C/c1ccccc1)Nc1ncnc2sc3c(c12)CCC3 [Compound 2008K11] | 0.0615 | 0.9074 | –
